# US10131644B2, “Aryl sultam derivatives as RORc modulators” (Genentech, Inc., priority 2014, dated 2018)
# Target: T1, RORc (Homo sapiens, UniProt P51449)
# T1 sequence (P51449 269-508 limits assumed): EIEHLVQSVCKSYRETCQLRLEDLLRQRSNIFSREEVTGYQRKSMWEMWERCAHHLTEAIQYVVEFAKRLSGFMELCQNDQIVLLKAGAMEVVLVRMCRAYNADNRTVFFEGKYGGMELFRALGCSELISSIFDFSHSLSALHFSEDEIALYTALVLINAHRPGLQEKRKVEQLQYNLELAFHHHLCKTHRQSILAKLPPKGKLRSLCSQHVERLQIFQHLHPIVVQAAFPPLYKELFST
# Test: In vitro RORc ligand binding assay (25-[3H]hydroxycholesterol displacement)
# Conditions: IC50, IC50 values for RORc; unit inferred
# Description: This assay was used to determine a compound's potency in inhibiting activity of RORc by determining, Kiapp, IC50, or percent inhibition values.
# On day of the assay, 100 uL of 0.05% CHAPS (in deionized H2O) was added to all wells of the GFB Unifilter plate and allowed soak for 1 h. A wash buffer of 50 mM HEPES (pH 7.4), 150 mM NaCl, and 5 mM MgCl2 was prepared to wash the filter plate. To prepare an assay buffer, BSA was added to the wash buffer to reach 0.01% and DTT was added to reach 1 mM.
# The 20× compound stocks were diluted in DMSO with Assay Buffer 4-fold to reach 5× the final test concentration in 25% DMSO (10 uL compound+30 uL Assay Buffer). Solutions were mixed by aspiration several times with a pipette set on 50 uL volume. For the assay, 10 uL of 5× compound stock solutions in 25% DMSO were added to the assay plate in duplicate.
# For two point screening, 10 mM stock compound solutions were diluted in DMSO to obtain 200 uM (20× the high test concentration) and then diluted 10-fold further to reach 20 uM (20× the low test concentration). The 20× stocks were diluted 4-fold with Assay Buffer (10 uL compound+30 uL Assay Buffer) to reach 5× the test concentrations (50 uM and 5 uM) and 10 uL were added to two assay plates for the duplicate wells. With each concentration tested on 2 plates, each set of 80 compounds used 4 assay plates (1 uM and 10 uM, with n=2).
# For 25-hydroxycholesterol in 25% DMSO/75% Assay Buffer; 10 uL per well was used for NSB samples. Wells for Total Binding and No Receptor sample determination contained 10 uL of 25% DMSO/75% Assay Buffer per well.
# Add 20 uL to all wells to reach 6 nM final in the assay.
# Stock receptor solution was diluted in assay buffer to obtain 1.5 ug/mL in Assay Buffer. 20 uL was added to all wells. For No R samples, 20 uL Assay Buffer was substituted for receptor solution.
# Assay plates were 96-well polypropylene V-bottom plates. 10 uL of 5× compound in 25% DMSO/75% Assay Buffer was added to Test wells. 10 uL of 25% DMSO/75% Assay Buffer was added to Total Binding or No Receptor wells. 10 uL of 5 uM 25-hydroxycholesterol in 25% DMSO/75% Assay Buffer was added to NSB wells. […] 20 uL of 1.5 ug/mL RORc receptor was added to wells (or 40 uL Assay Buffer to No R wells). Following addition to the wells, the plates were incubated 3 h at 25° C.
# Using a Packard Filtermate Harvester, the filter plate were washed 4 times following transfer of the incubated samples. Plates were dry-filtered completely (2 h at 50° C. or overnight at room temperature). 50 uL Microscint 0 was added to all wells and read on Topcount protocol Inverted.
# For NSB wells, 1 uM 25-hydroxycholesterol was also present.
row,Structure (SMILES),IC50 [nM]
1,"CC(=O)N1CC(OCC(N)=O)(c2cc(F)c(CN3[C@@H](C)CC[C@H](c4ccccc4)S3(=O)=O)cc2F)C1 [Compound 175, 2-[1-acetyl-3-[2,5-difluoro-4-[[(3S,6R)-3-methyl-1,1-dioxo-6-phenyl-thiazinan-2-yl]methyl]phenyl]azetidin-3-yl]oxyacetamide]",4.9
2,"C[C@H]1CC[C@H](c2ccccc2)S(=O)(=O)N1Cc1cc(F)c(C2(OCC(=O)NCCO)COC2)cc1F [Compound 176, 2-[3-[2,5-difluoro-4-[[(3S,6R)-3-methyl-1,1-dioxo-6-phenyl-thiazinan-2-yl]methyl]phenyl]oxetan-3-yl]oxy-N-(2-hydroxyethyl)acetamide]",2.5
3,"CNC(=O)COC1(c2cc(F)c(CN3[C@@H](C)CC[C@H](c4ccccc4)S3(=O)=O)cc2F)COC1 [Compound 177, 2-[3-[2,5-difluoro-4-[[(3S,6R)-3-methyl-1,1-dioxo-6-phenyl-thiazinan-2-yl]methyl]phenyl]oxetan-3-yl]oxy-N-methyl-acetamide]",4.35
4,"C[C@H]1CC[C@H](c2ccccc2)S(=O)(=O)N1Cc1ccc([C@]2(C#N)C[C@H](O)C2)cc1F [Compound 178, 1-[3-fluoro-4-[[(3S,6R)-3-methyl-1,1-dioxo-6-phenyl-thiazinan-2-yl]methyl]phenyl]-3-hydroxy-cyclobutanecarbonitrile]",44.1
5,"C[C@H]1CC[C@H](c2ccccc2)S(=O)(=O)N1Cc1ccc([C@]2(C#N)C[C@@H](O)C2)cc1F [Compound 179, 1-[3-fluoro-4-[[(3S,6R)-3-methyl-1,1 dioxo-6-phenyl-thiazinan-2-yl]methyl]phenyl]-3-hydroxy-cyclobutanecarbonitrile]",159
6,"C[C@@H](NC1(c2ccc(CN3[C@@H](C)CC[C@H](c4ccccc4)S3(=O)=O)c(F)c2)CCOCC1)C(N)=O [Compound 180, (2R)-2-[[4-[3-fluoro-4-[[(3S,6R)-3-methyl-1,1-dioxo-6-phenyl-thiazinan-2-yl]methyl]phenyl]tetrahydropyran-4-yl]amino]propanamide]",6.7
7,"COC1(OC)CC(C(N)=O)(c2ccc(CN3[C@@H](C)CC[C@H](c4ccccc4)S3(=O)=O)c(F)c2)C1 [Compound 181, 1-[3-fluoro-4-[[(3S,6R)-3-methyl-1,1-dioxo-6-phenyl-thiazinan-2-yl]methyl]phenyl]-3,3-dimethoxy-cyclobutanecarboxamide]",23.7
8,"C[C@H]1CC[C@H](c2ccccc2)S(=O)(=O)N1Cc1ccc([C@]2(C(N)=O)C[C@H](O)C2)cc1F [Compound 182, 1-[3-fluoro-4-[[(3S,6R)-3-methyl-1,1-dioxo-6-phenyl-thiazinan-2-yl]methyl]phenyl]-3-hydroxy-cyclobutanecarboxamide]",37.3
9,"C[C@H]1CC[C@H](c2ccccc2)S(=O)(=O)N1Cc1ccc([C@]2(C(N)=O)C[C@@H](O)C2)cc1F [Compound 183, 1-[3-fluoro-4-[[(3S,6R)-3-methyl-1,1-dioxo-6-phenyl-thiazinan-2-yl]methyl]phenyl]-3-hydroxy-cyclobutanecarboxamide]",55.2
10,"CCOC(=O)[C@H](C)NC1(c2ccc(CN3[C@@H](C)CC[C@H](c4ccccc4)S3(=O)=O)c(F)c2)CCOCC1 [Compound 184, ethyl (2S)-2-[[4-[3-fluoro-4-[[(3S,6R)-3-methyl-1,1-dioxo-6-phenyl-thiazinan-2-yl]methyl]phenyl]tetrahydropyran-4-yl]amino]propanoate]",40.9
11,"C[C@H](NC1(c2ccc(CN3[C@@H](C)CC[C@H](c4ccccc4)S3(=O)=O)c(F)c2)CCOCC1)C(N)=O [Compound 185, (2S)-2-[[4-[3-fluoro-4-[[(3S,6R)-3-methyl-1,1-dioxo-6-phenyl-thiazinan-2-yl]methyl]phenyl]tetrahydropyran-4-yl]amino]propanamide]",102
12,"C[C@H]1CC[C@H](c2ccccc2)S(=O)(=O)N1Cc1ccc(C2(OCC(N)=O)COC2)cc1F [Compound 186, 2-[3-[3-fluoro-4-[[(3S,6R)-3-methyl-1,1-dioxo-6-phenyl-thiazinan-2-yl]methyl]phenyl]oxetan-3-yl]oxyacetamide]",8
13,"C[C@H]1CC[C@H](c2ccccc2)S(=O)(=O)N1Cc1ccc(C2(NCCCO)CCOCC2)cc1F [Compound 187, 3-[[4-[3-fluoro-4-[[(3S,6R)-3-methyl-1,1-dioxo-6-phenyl-thiazinan-2-yl]methyl]phenyl]tetrahydropyran-4-yl]amino]propan-1-ol]",74
14,"C[C@H]1CC[C@H](c2ccccc2)S(=O)(=O)N1Cc1ccc(C2(N(C)CC(N)=O)CCOCC2)cc1F [Compound 188, 2-[[4-[3-fluoro-4-[[(3S,6R)-3-methyl-1,1-dioxo-6-phenyl-thiazinan-2-yl]methyl]phenyl]tetrahydropyran-4-yl]-methyl-amino]acetamide]",24
15,"COC(CNC1(c2cc(F)c(CN3[C@@H](C)CC[C@H](c4ccccc4)S3(=O)=O)cc2F)CCOCC1)OC [Compound 189, 4-[2,5-difluoro-4-[[(3S,6R)-3-methyl-1,1-dioxo-6-phenyl-thiazinan-2-yl]methyl]phenyl]-N-(2,2-dimethoxyethyl)tetrahydropyran-4-amine]",71
16,"C[C@H]1CC[C@H](c2ccccc2)S(=O)(=O)N1Cc1cc(F)c(C2(N)COC2)cc1F [Compound 190, 3-[2,5-difluoro-4-[[(3S,6R)-3-methyl-1,1-dioxo-6-phenyl-thiazinan-2-yl]methyl]phenyl]oxetan-3-amine]",71.5
17,"C[C@H]1CC[C@H](c2ccccc2)S(=O)(=O)N1Cc1cc(F)c(C2(N[S+]([O-])C(C)(C)C)COC2)cc1F (stereo partly drawn) [Compound 191, N-[3-[2,5-difluoro-4-[[(3S,6R)-3-methyl-1,1-dioxo-6-phenyl-thiazinan-2-yl]methyl]phenyl]oxetan-3-yl]-2-methyl-propane-2-sulfinamide]",55.3
18,"C[C@H]1CC[C@H](c2ccccc2)S(=O)(=O)N1Cc1cc(F)c(C2(O)COC2)cc1F [Compound 192, 3-[2,5-difluoro-4-[[(3S,6R)-3-methyl-1,1-dioxo-6-phenyl-thiazinan-2-yl]methyl]phenyl]oxetan-3-ol]",2.65
19,"C[C@H]1CC[C@H](c2ccccc2)S(=O)(=O)N1Cc1cc(F)c(C2(C(N)=O)CC(=O)C2)cc1F [Compound 193, 1-[2,5-difluoro-4-[[(3S,6R)-3-methyl-1,1-dioxo-6-phenyl-thiazinan-2-yl]methyl]phenyl]-3-oxo-cyclobutanecarboxamide]",8.07
20,"C[C@H]1CC[C@H](c2ccccc2)S(=O)(=O)N1Cc1cc(F)c(C2(C(N)=O)CC(F)(F)C2)cc1F [Compound 194, 1-[2,5-difluoro-4-[[(3S,6R)-3-methyl-1,1-dioxo-6-phenyl-thiazinan-2-yl]methyl]phenyl]-3,3-difluoro-cyclobutanecarboxamide]",3.05
21,"C[C@H]1CC[C@H](c2ccccc2)S(=O)(=O)N1Cc1cc(F)c(C2(NCC(N)=O)COC2)cc1F [Compound 195, 2-[[3-[2,5-difluoro-4-[[(3S,6R)-3-methyl-1,1-dioxo-6-phenyl-thiazinan-yl]methyl]phenyl]oxetan-3-yl]amino]acetamide]",35
22,"C[C@H]1CC[C@H](c2ccccc2)S(=O)(=O)N1Cc1ccc(C2(C(N)=O)CC2)cc1F [Compound 196, 1-[3-fluoro-4-[[(3S,6R)-3-methyl-1,1-dioxo-6-phenyl-thiazinan-2-yl]methyl]phenyl]cyclopropanecarboxamide]",1080
23,"C[C@H]1CC[C@H](c2ccccc2)S(=O)(=O)N1Cc1ccc(OCC2(C)CCOCC2)cc1F [Example 2, (3S,6R)-2-[2-Fluoro-4-(4-methyl-tetrahydro-pyran-4-ylmethoxy)-benzyl]-3-methyl-6-phenyl-[1,2]thiazinane 1,1-dioxide]",67
24,"C[C@H]1CC[C@H](c2ccccc2)S(=O)(=O)N1Cc1ccc(OCC2(CO)CCOCC2)cc1F [Example 3, {4-{3-Fluoro-4-((3S,6R)-3-methyl-1,1-dioxo-6-phenyl-[1,2]thiazinan-2-ylmethyl)-phenoxymethyl]-tetrahydro-pyran-4-yl}-methanol]",82
25,"C[C@H]1CC[C@H](c2ccccc2)S(=O)(=O)N1Cc1ccc(OCC2(CS(C)(=O)=O)CCOCC2)cc1F [Example 4, (3S,6R)-2-[2-Fluoro-4-(4-methanesulfonylmethyl-tetrahydro-pyran-4-ylmethoxy)-benzyl]-3-methyl-6-phenyl-[1,2]thiazinane 1,1-dioxide]",46
26,"C[C@H]1CC[C@H](c2ccccc2)S(=O)(=O)N1Cc1ccc(OCC2(F)CCOCC2)cc1F [Example 5, (3S,6R)-2-[2-Fluoro-4-(4-fluoro-tetrahydro-pyran-4-ylmethoxy)-benzyl]-3-methyl-6-phenyl-[1,2]thiazinane 1,1-dioxide]",160
27,"C[C@H]1CC[C@H](c2ccccc2)S(=O)(=O)N1Cc1ccc(OCC2(C#N)CCOCC2)cc1F [Example 6, 4-{3-Fluoro-4-((3S,6R)-3-methyl-1,1-dioxo-6-phenyl-[1,2]thiazinan-2-ylmethyl)-phenoxymethyl]-tetrahydro-pyran-4-carbonitrile]",220
28,"CC(=O)N1CCC(O)(c2ccc(CN3[C@@H](C)CC[C@H](c4ccccc4)S3(=O)=O)cc2)CC1 [Example 7, 1-{4-Hydroxy-4-[4-((3S,6R)-3-methyl-1,1-dioxo-6-phenyl-[1,2]thiazinan-2-ylmethyl)-phenyl]-piperidin-1-yl}-ethanone]",330
29,"CC(=O)N1CCC(F)(c2ccc(CN3[C@@H](C)CC[C@H](c4ccccc4)S3(=O)=O)cc2)CC1 [Example 8, 1-{4-Fluoro-4-[4-((3S,6R)-3-methyl-1,1-dioxo-6-phenyl-[1,2]thiazinan-2-ylmethyl)-phenyl]-piperidin-1-yl}-ethanone]",200
